Source: patent publication US10076567B2, “MPER-liposome conjugates and uses thereof” (Duke University, priority 2013, dated 2018)

Experiments:
2F5 mAb [1] = conditions: for 2F5 mAb binding response: background subtracted, 10 seconds after the injection was stopped, peptides anchored to liposomes
Experimental: FIGS. 6A and 6B. […] FIG. 6A. […] FIG. 6B.
SPR binding assays were performed on a BIAcore 3000 (BIAcore Inc, Piscattaway, N.J.) maintained at 20° C. as previously described (Alam et al, J. Immunol. 178:4424-4435 (2007)). […] Specific binding responses of mAb binding were obtained following subtraction of non-specific binding on the scrambled 2F5 peptide surface.

2F5 mAb [2] = assay: SPR binding of 2F5 mAb to MPER peptide-liposomes with TLR adjuvants
Experimental: FIGS. 10A-10C. Interaction of 2F5 mAb with MPER peptide-liposomes conjugated to TLR adjuvants.
FIG. 21 Binding of BNAb 2F5 and 4E10 to MPER peptide-liposomes described in FIGS. 19-20. Synthetic MPER peptide-liposomes complexed to the indicated MPER peptide and TLR adjuvants (R848, Lipid A) were anchored on a BIAcore sencor ship (L1) and each mAb (2 μg/mL) injected over the surface. Binding shown is after subtraction of non-specific signal measured on a control liposome surface.

MPER-Specific Proteins = assay: NHP#91 Week 14 plasma binding to MPER-specific proteins by ELISA; assay type: in vivo, Rhesus macaques; conditions: NHP#91, Week 14, ELISA log AUC
Excerpt: (§1) Rhesus macaques were immunized in 5 groups for NHP#87 with the different MPER peptide liposomes. Group 5 animals were immunized with a swarm of all of the MPER peptide liposomes. 4 animals per group. NHP#91 was a study to compare two adjuvants. Group 1 had MPLA alone and Group2 had R848 alone. The immunogen for both groups was the original MPER656 peptide liposome. The idea was to compare group 1 and 2 from this study to group 4 from NHP#87 where the animals received both MPLA and R848.
NHP#91 and last group (656+MPLA+R848) is group 4 of NHP#87 (for all panels pre-immune substracted); Isolated plasma at Week 14 was screened for binding to each immunogen by ELISA. Plotted is the log area under the curve for binding for each individual monkey separated by group. Solid line indicates the average log AUC for each group.

Immunogen Peptides = assay: NHP#91 Week 14 plasma binding to immunogen peptides by ELISA; assay type: in vivo, Rhesus macaques; conditions: NHP#91, Week 14, ELISA log AUC
Excerpt: as §1
NHP#91 and last group (656+MPLA+R848) is group 4 of NHP#87; Isolated plasma at Week 14 was screened for binding to each immunogen by ELISA. Plotted is the log area under the curve for binding for each individual monkey separated by group. Solid line indicates the average log AUC for each group.

QQEKNEQELLELDKWASLWNYKRWIILGLNKIVRMYS-biotin [consensus 2F5 epitope]
2F5 mAb binding response (2F5 mAb [1]): 494.6 response unit

NEKDLLALDSWKNLWNWFSITKWLWYIK [MPER656.2]
binding of 2F5 mAb to peptide-liposome construct (2F5 mAb [2]): lack of binding

Monophosphoryl Lipid A [MPLA]
plasma binding to MPER-specific proteins, adjuvant comparison (MPER-Specific Proteins): better than R848
plasma binding to immunogen peptides, adjuvant comparison (Immunogen Peptides): better than R848

QQEKNEQELLELDKWASSWNYKRWIILGLNKIVRMYS-biotin
off-rate of the mAb 2F5-peptide liposome complex (2F5 mAb [1]): significantly slower off-rates
2F5 mAb binding response (2F5 mAb [1]): 616.7 response unit
